According to patent publication US20260021103A1, “IKZF2 AND CK1-ALPHA DEGRADING COMPOUNDS AND USES THEREOF” (President and Fellows of Harvard College, priority 2022, published 2026):

Key:
Format in all cases: cell-based
Settings in all cases: 24 h, HEK293T GFP reporter
IKZF1 = target: T1, IKZF1 (Homo sapiens, UniProt Q13422+Q96SW2); assay: Flow cytometry for measuring degradation, HEK293T GFP-POI reporter cells (IKZF1)
T1 construct: expressed in transfected cells; host or cells: HEK293T (lentiviral transduction, puromycin selection, FACS sorting)
T1 sequence (Q13422 whole entry): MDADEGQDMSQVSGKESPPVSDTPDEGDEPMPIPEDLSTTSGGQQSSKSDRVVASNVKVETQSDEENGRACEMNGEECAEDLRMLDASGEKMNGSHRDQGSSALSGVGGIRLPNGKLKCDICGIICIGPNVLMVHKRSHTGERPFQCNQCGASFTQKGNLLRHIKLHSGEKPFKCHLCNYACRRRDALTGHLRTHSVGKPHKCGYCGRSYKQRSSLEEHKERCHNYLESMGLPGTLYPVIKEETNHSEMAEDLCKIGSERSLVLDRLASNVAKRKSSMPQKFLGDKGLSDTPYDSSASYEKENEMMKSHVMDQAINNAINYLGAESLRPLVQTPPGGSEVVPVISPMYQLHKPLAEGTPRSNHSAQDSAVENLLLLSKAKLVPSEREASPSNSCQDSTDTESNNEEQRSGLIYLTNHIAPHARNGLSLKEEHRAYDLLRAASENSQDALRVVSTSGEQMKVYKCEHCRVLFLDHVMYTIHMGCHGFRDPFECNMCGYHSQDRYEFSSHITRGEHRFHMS
T1 sequence (Q96SW2 whole entry): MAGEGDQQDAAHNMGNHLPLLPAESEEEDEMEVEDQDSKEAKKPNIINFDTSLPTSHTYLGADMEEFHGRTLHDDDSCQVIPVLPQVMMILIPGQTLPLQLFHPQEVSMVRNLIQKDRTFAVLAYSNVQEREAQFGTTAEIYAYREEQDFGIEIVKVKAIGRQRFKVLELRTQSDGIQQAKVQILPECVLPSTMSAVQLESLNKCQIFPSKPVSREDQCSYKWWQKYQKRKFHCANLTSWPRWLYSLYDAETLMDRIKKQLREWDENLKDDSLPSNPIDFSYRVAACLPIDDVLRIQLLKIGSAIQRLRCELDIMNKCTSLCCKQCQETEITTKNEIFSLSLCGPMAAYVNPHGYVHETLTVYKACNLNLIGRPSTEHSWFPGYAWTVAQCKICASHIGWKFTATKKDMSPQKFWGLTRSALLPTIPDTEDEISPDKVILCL
T1 sequence (Q16531 whole entry partner): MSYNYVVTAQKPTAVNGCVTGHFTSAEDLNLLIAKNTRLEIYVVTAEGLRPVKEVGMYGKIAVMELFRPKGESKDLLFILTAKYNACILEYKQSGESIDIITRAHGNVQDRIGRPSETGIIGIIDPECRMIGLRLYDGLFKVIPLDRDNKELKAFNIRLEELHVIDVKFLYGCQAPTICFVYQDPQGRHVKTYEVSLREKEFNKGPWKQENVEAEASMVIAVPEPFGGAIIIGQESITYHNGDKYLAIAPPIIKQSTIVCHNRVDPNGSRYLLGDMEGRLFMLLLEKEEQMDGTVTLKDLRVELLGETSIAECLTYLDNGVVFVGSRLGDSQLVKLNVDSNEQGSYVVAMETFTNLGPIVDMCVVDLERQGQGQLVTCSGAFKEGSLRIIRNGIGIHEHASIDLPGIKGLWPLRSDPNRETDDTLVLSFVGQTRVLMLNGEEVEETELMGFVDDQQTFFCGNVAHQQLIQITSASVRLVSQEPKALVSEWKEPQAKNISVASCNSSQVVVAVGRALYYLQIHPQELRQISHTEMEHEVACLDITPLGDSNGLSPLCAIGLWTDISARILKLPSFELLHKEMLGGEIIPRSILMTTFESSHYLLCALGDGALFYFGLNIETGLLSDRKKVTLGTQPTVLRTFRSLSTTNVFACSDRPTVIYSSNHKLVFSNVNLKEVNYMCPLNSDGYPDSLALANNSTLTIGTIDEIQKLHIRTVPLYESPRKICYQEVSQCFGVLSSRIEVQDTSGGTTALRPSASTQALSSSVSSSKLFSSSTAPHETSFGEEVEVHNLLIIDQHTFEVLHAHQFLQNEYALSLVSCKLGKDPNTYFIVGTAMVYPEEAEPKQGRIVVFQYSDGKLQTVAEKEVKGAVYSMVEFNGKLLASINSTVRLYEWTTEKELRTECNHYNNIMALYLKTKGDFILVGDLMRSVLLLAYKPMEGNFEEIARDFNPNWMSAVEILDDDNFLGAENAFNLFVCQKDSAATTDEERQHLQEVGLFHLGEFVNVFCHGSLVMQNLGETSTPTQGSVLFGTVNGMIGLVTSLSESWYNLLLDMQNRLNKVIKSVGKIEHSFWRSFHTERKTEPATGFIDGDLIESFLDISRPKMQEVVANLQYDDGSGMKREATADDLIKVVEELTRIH

IKZF2 = target: T2, IKZF2 (Homo sapiens, UniProt Q96SW2+Q9UKS7); assay: Flow cytometry for measuring degradation, HEK293T GFP-POI reporter cells (IKZF2)
T2 construct: expressed in transfected cells; host or cells: HEK293T (lentiviral transduction, puromycin selection, FACS sorting)
T2 sequence (Q9UKS7 whole entry): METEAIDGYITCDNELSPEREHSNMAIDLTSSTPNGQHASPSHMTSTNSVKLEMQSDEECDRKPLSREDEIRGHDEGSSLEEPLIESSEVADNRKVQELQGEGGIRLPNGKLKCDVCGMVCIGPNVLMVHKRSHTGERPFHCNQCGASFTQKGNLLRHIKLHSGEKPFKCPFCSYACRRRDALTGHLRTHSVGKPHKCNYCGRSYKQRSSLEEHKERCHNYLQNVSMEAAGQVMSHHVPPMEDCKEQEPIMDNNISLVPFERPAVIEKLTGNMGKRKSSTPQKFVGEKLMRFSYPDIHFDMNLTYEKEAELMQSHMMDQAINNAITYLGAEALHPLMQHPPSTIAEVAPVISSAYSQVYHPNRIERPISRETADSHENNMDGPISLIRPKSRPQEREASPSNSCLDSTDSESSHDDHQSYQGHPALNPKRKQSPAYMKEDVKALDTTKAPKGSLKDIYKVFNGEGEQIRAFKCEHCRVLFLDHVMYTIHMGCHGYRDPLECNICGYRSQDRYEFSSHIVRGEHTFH
T2 sequence (Q96SW2 whole entry): as the sequence (Q96SW2 whole entry) above
T2 sequence (Q16531 whole entry partner): as the sequence (Q16531 whole entry partner) above

CK1α = target: T3, CK1α (Homo sapiens, UniProt P48729+Q96SW2); assay: Flow cytometry for measuring degradation, HEK293T GFP-POI reporter cells (CK1α)
T3 construct: expressed in transfected cells; host or cells: HEK293T (lentiviral transduction, puromycin selection, FACS sorting)
T3 sequence (P48729 whole entry): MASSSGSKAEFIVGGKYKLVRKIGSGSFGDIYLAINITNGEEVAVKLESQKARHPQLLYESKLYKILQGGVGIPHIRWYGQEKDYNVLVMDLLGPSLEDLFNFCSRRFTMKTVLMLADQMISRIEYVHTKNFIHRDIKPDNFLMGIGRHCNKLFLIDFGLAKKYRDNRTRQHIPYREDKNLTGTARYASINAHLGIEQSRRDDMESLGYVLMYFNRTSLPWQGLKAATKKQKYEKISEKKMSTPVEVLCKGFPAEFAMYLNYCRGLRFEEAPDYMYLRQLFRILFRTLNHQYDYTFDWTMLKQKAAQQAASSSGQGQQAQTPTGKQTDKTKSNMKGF
T3 sequence (Q96SW2 whole entry): as the sequence (Q96SW2 whole entry) above
T3 sequence (Q16531 whole entry partner): as the sequence (Q16531 whole entry partner) above

GSPT1 = GSPT1 (Homo sapiens, UniProt P15170+Q96SW2); assay: Flow cytometry for measuring degradation, HEK293T GFP-POI reporter cells (GSPT1); set-up: expressed in transfected cells; host or cells: HEK293T
Sequence of GSPT1 (P15170 whole entry): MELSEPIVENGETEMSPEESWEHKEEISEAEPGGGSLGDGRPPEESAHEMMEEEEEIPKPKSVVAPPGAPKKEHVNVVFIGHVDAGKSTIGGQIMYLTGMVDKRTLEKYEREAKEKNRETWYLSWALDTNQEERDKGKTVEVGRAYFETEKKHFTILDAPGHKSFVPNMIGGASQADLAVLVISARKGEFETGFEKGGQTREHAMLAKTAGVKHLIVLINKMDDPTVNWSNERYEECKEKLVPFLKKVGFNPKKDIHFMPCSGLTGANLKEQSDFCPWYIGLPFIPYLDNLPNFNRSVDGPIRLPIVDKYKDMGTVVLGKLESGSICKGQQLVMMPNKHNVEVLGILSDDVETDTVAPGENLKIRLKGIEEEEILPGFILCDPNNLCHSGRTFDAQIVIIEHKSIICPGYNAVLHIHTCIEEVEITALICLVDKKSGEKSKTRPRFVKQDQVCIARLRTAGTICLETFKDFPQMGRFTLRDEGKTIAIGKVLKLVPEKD
Sequence of GSPT1 (Q96SW2 whole entry): as the sequence (Q96SW2 whole entry) above
Sequence of GSPT1 (Q16531 whole entry partner): as the sequence (Q16531 whole entry partner) above

Row | Compound | IKZF1% degradation at 100 nM (IKZF1) | IKZF1% degradation at 1 μM (IKZF1) | IKZF2% degradation at 100 nM (IKZF2) | IKZF2% degradation at 1 μM (IKZF2) | CK1α % degradation at 100 nM (CK1α) | CK1α % degradation at 1 μM (CK1α) | GSPT1% degradation at 100 nM (GSPT1) | GSPT1% degradation at 1 μM (GSPT1)
1 | COc1ccc(CCC(=O)Nc2ccc3c(c2)CN(C2CCC(=O)NC2=O)C3=O)cc1 (stereo not shown) [DEG-57] | 81.9 ± 0.7% | 92.5 ± 0.2% | 76.2 ± 0.4% | 88.6 ± 0.2% | 40.3 ± 11.2% | 54.1 ± 2.1% | 11.7 ± 1.3% | 9.9 ± 0.8%
2 | COc1ccc2c(CC(=O)Nc3ccc4c(c3)CN(C3CCC(=O)NC3=O)C4=O)cccc2c1 (stereo not shown) [DEG-58, N-(2-(2,6-dioxopipperidin-3-yl)-1-oxoisoindolin-5-yl)-2-(6-methoxynaphthalen-1-yl)acetamide] | 97.7 ± 0.1% | 98.4 ± 0% | 93 ± 0.2% | 95.8 ± 0.1% | 63.4 ± 0.6% | 57 ± 0.1% | 29 ± 1.9% | 41.9 ± 0.8%
3 | COc1ccc(/C=C/C(=O)Nc2ccc3c(c2)CN(C2CCC(=O)NC2=O)C3=O)cc1 (stereo not shown) [DEG-60, (E)-N-(2-(2,6-dioxopiperidin-3-yl)-1-oxoisoindolin-5-yl)-3-(4-methoxyphenyl)acrylamide] | 17.6 ± 0.8% | 40.3 ± 0.9% | 74.7 ± 0.3% | 89.5 ± 0.2% | 64.3 ± 1.3% | 68.3 ± 1.2% | 11.6 ± 1.4% | 16.5 ± 2%
4 | CC(=O)Nc1ccc2c(c1)CN(C1CCC(=O)NC1=O)C2=O (stereo not shown) [DEG-66, N-(2-(2,6-dioxopiperidin-3-yl)-1-oxoisoindolin-5-yl)acetamide] | 4.4 ± 0.8% | 10.9 ± 0.9% | 16.6 ± 0.1% | 48.5 ± 0.2% | 12 ± 1.3% | 25.4 ± 0.8% | 9.9 ± 0.8% | 8.6 ± 0.8%
5 | COc1ccc2cccc(CC(=O)Nc3ccc4c(c3)CN(C3CCC(=O)NC3=O)C4=O)c2c1 (stereo not shown) [DEG-68, N-(2-(2,6-dioxopiperidin-3-yl)-1-oxoisoindolin-5-yl)-2-(7-methoxynaphthalen-1-yl)acetamide] | 96.9 ± 0.1% | 97.6 ± 0.1% | 92.2 ± 0.1% | 94.4 ± 0.1% | 59.7 ± 1.2% | 64.4 ± 1.6% | 16.6 ± 1.3% | 21.3 ± 1.8%
6 | COc1ccc(Oc2ccc(C(=O)Nc3ccc4c(c3)CN(C3CCC(=O)NC3=O)C4=O)cc2)cc1 (stereo not shown) [DEG-70, N-(2-(2,6-dioxopiperidin-3-yl)-1-oxoisoindolin-5-yl)-4-(4-methoxyphenoxy)benzamide] | 6.5 ± 1.4% | 16.2 ± 0.6% | 53.6 ± 0.6% | 84.5 ± 0.3% | 44.9 ± 3.4% | 55.8 ± 5.6% | 4.3 ± 1.1% | 4.8 ± 0.4%
7 | O=C1CCC(N2Cc3cc(NC(=O)Cc4ccc5ccccc5c4)ccc3C2=O)C(=O)N1 (stereo not shown) [DEG-71, N-(2-(2,6-dioxopiperidin-3-yl)-1-oxoisoindolin-5-yl)-2-(naphthalen-2-yl)acetamide] | 98.5 ± 0.1% | 98.4 ± 0.1% | 93.8 ± 0.5% | 88.5 ± 3% | −190.2 ± 2.8% | −153 ± 2.3% | 63.1 ± 0.4% | 69.4 ± 0.6%
8 | COc1cc(Oc2ccccc2)ccc1C(=O)Nc1ccc2c(c1)CN(C1CCC(=O)NC1=O)C2=O (stereo not shown) [DEG-75, N-(2-(2,6-dioxopiperidin-3-yl)-1-oxoisoindolin-5-yl)-2-methoxy-4-phenoxybenzamide] | 2.4 ± 1.1% | 7 ± 0.4% | 54.6 ± 1.1% | 83.3 ± 0.3% | 48.1 ± 2.2% | 64 ± 1.5% | 0.4 ± 1.4% | 12.6 ± 1.2%

The remaining lines, values ahead:

Row | IKZF1% degradation at 100 nM (IKZF1) | IKZF1% degradation at 1 μM (IKZF1) | IKZF2% degradation at 100 nM (IKZF2) | IKZF2% degradation at 1 μM (IKZF2) | CK1α % degradation at 100 nM (CK1α) | CK1α % degradation at 1 μM (CK1α) | GSPT1% degradation at 100 nM (GSPT1) | GSPT1% degradation at 1 μM (GSPT1) | Compound
9 | 59.5 ± 0.2% | 84 ± 0.2% | 82.6 ± 0.3% | 93.9 ± 0% | 63.7 ± 1.1% | 69.8 ± 0.5% | 9 ± 1.6% | 13.7 ± 0.3% | O=C1CCC(N2Cc3cc(NC(=O)c4cccc(C(=O)c5ccccc5)c4)ccc3C2=O)C(=O)N1 (stereo not shown) [DEG-51, 3-benzoyl-N-(2-(2,6-dioxopiperidin-3-yl)-1-oxoisoindolin-5-yl)benzamide]
10 | 9.3 ± 0.8% | 8.8 ± 1.6% | 38.5 ± 0.2% | 76.5 ± 0.7% | 36.2 ± 4.5% | 55.4 ± 3.9% | 5 ± 1.4% | 2.4 ± 0.9% | O=C1CCC(N2Cc3cc(NC(=O)c4ccc5c(c4)OCCO5)ccc3C2=O)C(=O)N1 (stereo not shown) [DEG-53, N-(2-(2,6-dioxopiperidin-3-yl)-1-oxoisoindolin-5-yl)-2,3-dihydrobenzo[b]dioxine-6-carboxamide]
11 | 7.4 ± 0.8% | 9.7 ± 1.4% | 49.2 ± 0.2% | 84.1 ± 0.3% | 33.5 ± 10% | 57.6 ± 3.5% | 5.2 ± 1.5% | 3.3 ± 1.7% | O=C1CCC(N2Cc3cc(NC(=O)c4ccc5c(c4)OCO5)ccc3C2=O)C(=O)N1 (stereo not shown) [DEG-54, N-(2-(2,6-dioxopiperidin-3-yl)-1-oxoisoindolin-5-yl)benzo[d][1,3]dioxole-5-carboxamide]
12 | 6.4 ± 0.3% | 22.3 ± 0.5% | 61.1 ± 0.5% | 90.6 ± 0.1% | 50.2 ± 1.7% | 64.7 ± 0.4% | 2 ± 2.1% | 4.4 ± 1.9% | O=C1CCC(N2Cc3cc(NC(=O)c4ccc5occc5c4)ccc3C2=O)C(=O)N1 (stereo not shown) [DEG-62, N-(2-(2,6-dioxopiperidin-3-yl)-1-oxoisoindolin-5-yl)benzofuran-5-carboxamide]
13 | 13.4 ± 0.7% | 35.2 ± 0.6% | 70.8 ± 0.6% | 90.7 ± 0.2% | 46.4 ± 1.4% | 60.3 ± 1.2% | −0.1 ± 1.2% | 1.2 ± 0.3% | O=C1CCC(N2Cc3cc(NC(=O)C4=COc5ccccc5O4)ccc3C2=O)C(=O)N1 (stereo not shown) [DEG-63, N-(2-(2,6-dioxopiperidin-3-yl)-1-oxoisoindolin-5-yl)benzo[b][1,4]dioxine-2-carboxamide]
14 | 98.6 ± 0.1% | 98.6 ± 0.1% | 89.5 ± 0.1% | 93.2 ± 0.7% | 64.8 ± 0.3% | 65.5 ± 2.3% | 12.5 ± 1.2% | 16.8 ± 1.9% | COc1ccc(Oc2cccc(C(=O)Nc3ccc4c(c3)CN(C3CCC(=O)NC3=O)C4=O)c2)cc1 (stereo not shown) [DEG-69, N-(2-(2,6-dioxopiperidin-3-yl)-1-oxoisoindolin-5-yl)-3-(4-methoxyphenoxy)benzamide]
15 | 2.7 ± 1.2% | 6.5 ± 1.2% | 41.8 ± 2% | 82.5 ± 0.9% | 33.2 ± 3.2% | 54.5 ± 3.8% | −1.7 ± 3.4% | −0.9 ± 2.6% | O=C1CCC(N2Cc3cc(NC(=O)c4ccc5ncsc5c4)ccc3C2=O)C(=O)N1 (stereo not shown) [DEG-72, N-(2-(2,6-dioxopiperidin-3-yl)-1-oxoisoindolin-5-yl)benzo[d]thiazole-6-carboxamide]
16 | 11.7 ± 0.3% | 26.3 ± 0.6% | 67.4 ± 1.2% | 87.8 ± 0.3% | 56.6 ± 1.2% | 60.4 ± 0.6% | 11.1 ± 1.4% | 19.8 ± 0.8% | O=C1CCC(N2Cc3cc(NC(=O)c4ccc(Sc5ccccc5)cc4)ccc3C2=O)C(=O)N1 (stereo not shown) [DEG-73, N-(2-(2,6-dioxopiperidin-3-yl)-1-oxoisoindolin-5-yl)-4-(phenylthio)benzamide]
17 | 4.3 ± 0.5% | 32.5 ± 0.4% | 57.1 ± 1.1% | 96 ± 0% | 59.5 ± 1.1% | 64.8 ± 0.6% | 9 ± 2.6% | 37.5 ± 2.1% | COc1ccc2c(c1)OCC(C(=O)Nc1ccc3c(c1)CN(C1CCC(=O)NC1=O)C3=O)=C2 (stereo not shown) [DEG-74, N-(2-(2,6-dioxopiperidin-3-yl)-1-oxoisoindolin-5-yl)-7-methoxy-2H-chromene-3-carboxamide]
